Patent US4225619A, “Substituted fluoracylresorcinols” (Boehringer Ingelheim GmBH, priority 1976, dated 1980)
Converted amounts (≈) assume the structure as drawn.

Columns and labels:
[1] = system: Streptococcus pyogenes At CC 86 68; assay: Serial dilution test; format: cell-based; conditions: for MIC: Streptococcus pyogenes, ATCC8668, 18-20 hours at 37° C., read-out: MIC, S.D.T., Streptococcus pyogenes
Protocol: (§1) The inhibitory effect on bacteria and fungi was examined by the serial dilution test and the agar diffusion test (hole-test). As bacteria were used: Staphylococcus aureus SG 511, Streptococcus Aronson, Streptococcus pyogenes At CC 86 68; as fungi: Candida albicans AT CC 10231, Trichophyton mentagrophytes AT CC 9129 and Aspergillus niger.
(§2) 2. Glucose broth: for Sc. Aronson and St. pyogenes Recipe see meat extract broth. After sterilization 1 weight percent of glucose is added as a sterile 50% solution.
(§3) The age of the primary cultures is 24 hours for bacteria and 14 days for fungi. The standardization of the suspension of microorganisms is effected using a photometer according to Eppendorf (test tube .phi.14 mm, filter 546 nm) and a suspension for comparison consisting of barium sulfate, this suspension being created by adition of 3.0 ml of 1% barium chloride solution to 97 ml of 1% sulfuric acid. After the standardization the bacteria were further diluted to a concentration of 1:1000 by means of sodium chloride solution, the fungi were used in an undiluted state.
(§4) 40 mgm of the substance were put into a 10 ml measuring flask and filled up to the mark with the solvent (corresponds to a dilution of 1:250=4000 μg/ml). The further dilution series was standardized with distilled water or the respective solvent and the following substance concentrations were prepared: 1000; 250; 62.5 μg/ml.
(§5) The tubes were filled with 4.9 ml of the corresponding liquid nutrient medium. Then 0.1 ml of the substance dilution prepared above was added to each tube, so that the mentioned final concentrations were present. Finally each tube was inoculated with 0.1 ml of the standardized suspension of microorganisms. Control tests merely using the solvent are to be carried out simultaneously.
(§6) Bacteria were incubated at 37° C. for 18-20 hours and fungi at 27° C. for 7 days.
(§7) The measurement is carried out macroscopically defining the minimal inhibitory concentration (the lowest still microbiostatically effective concentration).

Streptococcus Aronson [2] = assay: Serial dilution test; format: cell-based; conditions: for MIC: Streptococcus, 18-20 hours at 37° C., read-out: MIC, S.D.T., Streptococcus Aronson
Protocol: as §1, §2, §3, §4, §5, §6, §7

[3] = system: Staphylococcus aureus SG 511; assay: Serial dilution test; format: cell-based; conditions: for MIC: Staphylococcus aureus, SG511, 18-20 hours at 37° C., read-out: MIC, S.D.T., Staphylococcus aureus SG 511
Protocol: as §1
1. Meat extract broth: for St. aureus SG 511
as §3, §4, §5, §6, §7

[4] = system: Streptococcus pyogenes At CC 86 68; assay: Agar diffusion test (hole-test); format: cell-based; conditions: ATCC8668, 18-20 hours at 37° C., read-out: MIC, A.D.T., Streptococcus pyogenes
Protocol: as §1
(§8) 2. Glucose agar: for Sc. Aronson and St. pyogenes Recipe see meat extract agar. After sterilization 1 weight percent of glucose is added as a sterile 50% solution.
as §3, with “addition” for “adition”, “St. aureus SG 511 was” for “the bacteria were further”, “diluted” for “diluted to a concentration of”, “1:1000 and Sc. pyogenes and Aronson 1:100” for “1:1000”, “solution. The” for “solution, the”
(§9) 40 mgm of the substance were put into a 10 ml measuring flask and filled up to the mark with the solvent (corresponds to a dilution of 1:250=4000 μg/ml).
(§10) The dilutions to the concentrations under test were effected with distilled water or the respective solvent.
(§11) 19 ml of the nutrient medium were filled into sterile Petri dishes of a diameter of 8 cm and dried. Subsequently the agar plates were charged with 4 ml of seed agar. 100 ml of seed agar contain 1.25 ml of the suspension of microorganisms, an agar plate thus containing 0.05 ml of the suspension of microorganisms. After solidification of the agar, 5 holes of a diameter of 5 mm were punched into the plates and filled with 0.05 ml of the correspondingly concentrated substance solution.
(§12) Control tests merely using the solvent are to be carried out simultaneously.
as §6
(§13) The diameter of the area of inhibition in mm was measured after having deducted the diameter of the hole.

Streptococcus Aronson [5] = assay: Agar diffusion test (hole-test); format: cell-based; conditions: 18-20 hours at 37° C., read-out: MIC, A.D.T., Streptococcus Aronson
Protocol: as §1, §8
as §3, with “addition” for “adition”, “St. aureus SG 511 was” for “the bacteria were further”, “diluted” for “diluted to a concentration of”, “1:1000 and Sc. pyogenes and Aronson 1:100” for “1:1000”, “solution. The” for “solution, the”
as §9, §10, §11, §12, §6, §13

Corynebacterium acnes = assay: Serial dilution test for Corynebacterium acnes; format: cell-based; conditions: for MIC: Cutibacterium acnes, 37° C. for 48 hours, read-out: MIC, S.D.T., Corynebacterium acnes
Protocol: Serial dilution test for Corynebacterium acnes and Pityrosporum ovale Nutrient medium
For Corynebacterium acnes: thioglycolate-broth for Pityrosporum ovale: Littmann's broth, 5 ml per tube.
Suspension of microorganisms in 0.9% sodium chloride solution, standardized using a photometer according to Eppendorf by means of a suspension for comparison consisting of barium sulfate, for Corynebacterium acnes in a dilution of 1:100, for Pityrosporum ovale in an undiluted state. 0.1 ml of the suspensions was used per test tube. Dimethyl sulfoxide served as a solvent for the substances.
The suspension with Corynebacteria acnes was incubated at 37° C. for 48 hours, the suspension of Pityrosporum ovale at 27° C. for 7 days. The reading was effected by macroscopic evaluation of the growth of microorganisms and registration of the minimal inhibitory concentration.

[6] = system: Staphylococcus aureus SG 511; assay: Agar diffusion test (hole-test); format: cell-based; conditions: SG511, 18-20 hours at 37° C., read-out: MIC, A.D.T., Staphylococcus aureus SG 511
Protocol: as §1
1. Meat extract agar: for St. aureus SG 511
as §3, with “addition” for “adition”, “St. aureus SG 511 was” for “the bacteria were further”, “diluted” for “diluted to a concentration of”, “1:1000 and Sc. pyogenes and Aronson 1:100” for “1:1000”, “solution. The” for “solution, the”
as §9, §10, §11, §12, §6, §13

[7] = target: glucose-6-phosphate-dehydrogenase; assay: Inhibition of glucose-6-phosphate-dehydrogenase (G6PDH); format: biochemical
Protocol: Measurement of the inhibition of the glucose-6-phosphatedehydrogenase
The equilibrium was observed:
Glucose-6-phosphate+NADP^+ G6-DH gluconic
acid-6-phosphate+NADPH+H^+
(NADP=nicotinamide-adenine-dinycleotide-phosphate, G6P-DH=gluconic acid-6-phosphate-dehydrogenase)
The formation velocity of NADPH is a measure for the enzyme activity; it may be observed by means of the extinction increase at 340, 334 or 366 nm per unit of time.
0.025 ml of glucose-6-phosphate-dehydrogenase (Boehringer Mannheim) were filled up to 10 ml of distilled water (solution I). 100 mgm of nicotinamide-adenine-dinucleotide-phosphate were dissolved in 13 ml of distilled water (solution II). 47.2 mgm of glucose-6-phosphate were dissolved in further 10 ml of distilled water (solution 3). Simultaneously a buffer solution (solution IV) was prepared as follows: 0.28 gm of triethanolamine-hydrochloride and 1.461 gm of ethylene diaminotetraacetic acid-disodium salt were dissolved in 1 liter of distilled water and adjusted to a pH of 7.6 with sodium hydroxide solution. The substance under test was dissolved in dimethyl formamide or ethanol (solution V). Tested concentrations: 50; 25; 12.5; 6.25; 3.125; 1.56 and 0.78 μg/ml.
0.1 ml of solution I, 0.1 ml of solution II, 2.67 ml of solution IV and 0.03 ml of solution V were mixed and kept at 25° C. for 5 minutes. Then 0.1 ml of solution III was added, mixed and the alteration of extinction was determined spectrophotometrically at 366 nm for 3 minutes.
0.1 ml of solution I, 0.1 ml of solution II, 2.67 ml of solution IV and 0.03 ml of solution V were mixed and kept at 37° C. for 60 minutes. Then 0.1 ml of solution III was added, mixed and the alteration of extinction was measured spectrophotometrically at 366 nm for 3 minutes.
The inhibitory values were calculated from the average values of three measurements (alteration of extinction per minute) compared with controls, which received the pure solvent as the inhibitory solution. Then the ED50 was calculated according to Reed and Muench from the inhibitory values for the various concentrations.

HeLa-cell culture = assay: Inhibition of HeLa cell cultures; format: cell-based; conditions: Homo sapiens, 72 h, 37° C. for 3 days, 5% carbon dioxide
Protocol: Measurement of the inhibition of cell cultures
HeLa-cell culture was treated with trypsin and adjusted to a cell number of 150,000 cells/ml of fresh medium. The substance was always dissolved in the same quantity of dimethyl sulfoxide and then further diluted with growth medium. 0.1 ml of the substance-dilutions were added to each well of microtiter plates and then 0.2 ml of cell suspension were added (4 wells per dilution). Several growth controls containing 0.1 ml of growth medium instead of 0.1 ml of substance dilution were put up. After careful mixing, the cultures were incubated at 37° C. for 3 days in a 5% carbon dioxide atmosphere. The reading was effected in comparison with these controls. The results were given as the percentage of the deficiency and degeneration compared to the growth control. […] The statements are referred to μg of substance per ml of total medium.

[8] = reduced growth at this concentration

MIC [1] | MIC (Streptococcus Aronson [2]) | MIC [3] | MIC [4] | MIC (Streptococcus Aronson [5]) | MIC (Corynebacterium acnes) | MIC [6] | G6PDH-inhibition Ed50, Immediate Inhibition ([7]; 25° C. for 5 minutes preincubation) | G6PDH-inhibition Ed50, Inhibition of Incubation ([7]; 37° C. for 60 minutes preincubation) | IC50 (HeLa-cell culture; read-out: ED50, HeLa cell culture) | SMILES | Concentration with reduced growth (value in brackets), S.D.T., Streptococcus pyogenes [1, 8] | Concentration with reduced growth (value in brackets), S.D.T., Staphylococcus aureus SG 511 [3, 8] | Concentration with reduced growth (value in brackets), S.D.T., Corynebacterium acnes (Corynebacterium acnes; [8]) | Concentration with reduced growth (value in brackets), S.D.T., Streptococcus Aronson (Streptococcus Aronson [2]; [8]) | minimal effective concentration (HeLa-cell culture; read-out: Minimal inhibitory concentration, HeLa cell culture)
1.25 µg/mL (≈ 3.76 µM) | 5 µg/mL (≈ 15 µM) | 5 µg/mL (≈ 15 µM) | ≤ 15.6 µg/mL | ≤ 15.6 µg/mL | 0.02 µg/mL (≈ 0.0602 µM) | ≤ 15.6 µg/mL | – | – | – | CCCCCCCCCc1cc(C(=O)C(F)(F)F)c(O)cc1O [J, 2,4-Dihydroxy-5-n-nonyl-trifluoroacetophenone] | 0.08 µg/mL | 1.25 µg/mL | – | – | –
– | – | – | – | – | – | – | 0.58 µg/mL | 0.13 µg/mL | – | CC(C)c1c(O)c(Cc2cc(C(=O)C(F)(F)F)c(O)c(C(C)C)c2O)cc(C(=O)C(F)(F)F)c1O [Z, Methylene-bis-(2,4-dihydroxy-3-isopropyl-5-trifluoro-acetyl)-benzene] | – | – | – | – | –
0.08 µg/mL (≈ 0.215 µM) | 0.31 µg/mL (≈ 0.832 µM) | 0.31 µg/mL (≈ 0.832 µM) | 62.5 µg/mL (≈ 168 µM) | ≤ 15.6 µg/mL | 1.25 µg/mL (≈ 3.36 µM) | 62.5 µg/mL (≈ 168 µM) | – | – | – | O=C(c1ccc(O)c(C2CCCCCCCCCCC2)c1O)C(F)(F)F [L, 2,4-Dihydroxy-3-cyclododecyl-trifluoroacetophenone] | – | – | 0.31 µg/mL | – | –
1.25 µg/mL (≈ 3.61 µM) | 20 µg/mL (≈ 57.7 µM) | 1.25 µg/mL (≈ 3.61 µM) | ≤ 15.6 µg/mL | ≤ 15.6 µg/mL | 0.31 µg/mL (≈ 0.895 µM) | 250 µg/mL (≈ 722 µM) | – | – | – | CCCCCCCCC(C)c1c(O)ccc(C(=O)C(F)(F)F)c1O (stereo not drawn) [M] | – | – | – | 1.25 µg/mL | –
0.31 µg/mL (≈ 1.13 µM) | 1.25 µg/mL (≈ 4.56 µM) | 1.25 µg/mL (≈ 4.56 µM) | 62.5 µg/mL (≈ 228 µM) | ≤ 15.6 µg/mL | 0.31 µg/mL (≈ 1.13 µM) | ≤ 15.6 µg/mL | – | – | 5.32 µg/mL (≈ 19.4 µM) | O=C(c1ccc(O)c(C2CCCC2)c1O)C(F)(F)F [N, 2,4-Dihydroxy-3-cyclopentyl-trifluoroacetophenone] | – | – | – | – | 3.13 µg/mL
